Laboratory results reported in US12458605B2, “Lipid nanoparticle” (National University Corporation Hokkaido University, priority 2020, dated 2025).
Where “and” joins values, the source holds several entries; their conditions need not be identical. Equal values may be shown once.

Key:
spleen = experiment: In vivo Fluc activity of FlucmRNA-loaded LNP by in vivo imaging, spleen; details: Balb/c mice, 6 hours; for Fluc activity in the spleen, compared with CL4F6 / Fluc activity in the spleen, compared with CL15F6: 0.1 mg mRNA/kg; for Fluc activity in the spleen, compared with CL4F6: versus LNP comprising CL4F6 (Tables 5 and 6); for Fluc Activity in spleen: FlucmRNA-loaded LNP i.v. 0.1 mg mRNA/kg; for Fluc activity in the spleen, compared with CL15F6: versus LNP comprising CL15F6 (Table 7)
Procedure, shortened: (§1)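 Female Balb/c mice, 7 weeks old, received LNP i.v. at 0.1 mg mRNA/kg. At 6 h, luciferin was given via tail vein at 1.5 mg per mouse, and liver and spleen luminescence was imaged as Avg Radiance [p/s/cm2/sr] near 560 nm.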

[1] = Storage stability of FlucmRNA-loaded LNP at −80, 5, 25 and 40° C.; assay type: physicochemical; details: for period for which quality remained good, −80° C.: maximum storage period 1 week; for period for which quality remained good, 5° C. / period for which quality remained good, 25° C. / period for which quality remained good, 40° C. (weeks) / period for which quality remained good, 40° C. (days): maximum storage period 5 weeks; for quality at production (storage stability criteria): criteria: PDI 0.2 or less, encapsulation 80% or more
Procedure, shortened: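 FlucmRNA-loaded LNPs held at −80, 5, 25 or 40° C; at each time point size, PDI and encapsulation measured. Quality deemed maintained while size stays within ±20 nm of preparation day, PDI ≤0.2 and encapsulation ≥80%; value is the period meeting all three.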

[2] = Average particle size (ζ-Average) and PDI by dynamic light scattering (Zetasizer Nano ZSP); assay type: physicochemical
Procedure, shortened: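 Lipid nanoparticles dispersed in PBS(−) were sized by dynamic light scattering, giving the ζ-Average diameter and polydispersity index (PDI).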

liver = experiment: In vivo Fluc activity of FlucmRNA-loaded LNP by in vivo imaging, liver; details: Balb/c mice, FlucmRNA-loaded LNP i.v. 0.1 mg mRNA/kg, 6 hours
Procedure, shortened: as §1

[3] = siRNA/mRNA encapsulation rate by Ribogreen reagent (section IV); assay type: physicochemical; details: for % siRNA encapsulation: F7siRNA-loaded LNP, 50:10:38.5:1.5, N/P ratio 6; for % mRNA encapsulation: FlucmRNA-loaded LNP, 50:10:38.5:1.5
Procedure, shortened: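 LNPs diluted in TE buffer to 8 μg/mL nucleic acid for surface RNA, or to 1.2 μg/mL with 1% Triton X-100 for total RNA. RiboGreen fluorescence (ex 485/em 528 nm) quantified against a Triton-containing standard curve (0-2.5 μg/mL). Encapsulation % = (total − surface)/total × 100.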

F7 = experiment: In vivo F7 knockdown, plasma F7 enzyme activity (BIOPHEN FVII), Balb/c mice; details: for F7 enzyme activity (%) / F7 enzyme activity (Ratio using MC3 as 1): i.v. 0.025 mg siRNA/kg, plasma at 24 hours; for F7 enzyme activity (%): untreated mice as 100%; for F7 enzyme activity (Ratio using MC3 as 1): relative plasma F7 activity of MC3 LNP as 1
Procedure, shortened: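 Female Balb/c mice, 5 weeks old, received F7 siRNA lipid nanoparticles i.v. at 0.025 mg siRNA/kg; plasma F7 activity measured chromogenically (BIOPHEN FVII) 24 h later. Values are % of untreated mice, also expressed as a ratio to MC3-containing nanoparticles set at 1.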

[4] = F7siRNA-loaded LNP, 50:10:38.5:1.5, N/P ratio 6
[5] = FlucmRNA-loaded LNP, 50:10:38.5:1.5
[6] = FlucmRNA-loaded LNP, lipid:DSPC:cholesterol:DMG-PEG2K 50:10:38.5:1.5

SMILES	Fluc activity in the spleen, compared with CL4F6 (spleen)	Fluc Activity in spleen (spleen)	period for which quality remained good, −80° C. [1]	period for which quality remained good, 5° C. [1]	period for which quality remained good, 25° C. [1]	period for which quality remained good, 40° C. (weeks) [1]	PDI [2, 4]	ζ-Average (nm) [2, 4]	PDI [2, 5]	ζ-Average (nm) [2, 6]	Fluc Activity in liver (liver)	% siRNA encapsulation [3]	% mRNA encapsulation [3]	F7 enzyme activity (%) (F7)	knockdown activity, compared with MC3 (F7; F7siRNA-loaded LNP, versus LNP comprising MC3)	F7 enzyme activity (Ratio using MC3 as 1) (F7)	period for which quality remained good, 40° C. (days) [1]	quality at production (storage stability criteria) [1]	Fluc activity in the spleen, compared with CL15F6 (spleen)
CCCCCCCCCCC(CCCC)C(=O)OCCCCCCC(O)(CCCCCCOC(=O)C(CCCC)CCCCCCCCCC)CCCCN(CCC)CCC (centres unmarked) [CL4F 12-4]	higher Fluc activity	3.19E+06 Avg Radiance [p/s/cm2/sr]	1 week	5 weeks	5 weeks	1 week weeks	0.011	94.55 nm	0.015	84.57 nm	7.70E+07 Avg Radiance [p/s/cm2/sr]	100.1%	99.0%	5%	–	–	–	–	–
CCCCCCCCCCC(CCCCCC)C(=O)OCCCCCCC(O)(CCCCCCOC(=O)C(CCCCCC)CCCCCCCCCC)CCCCN(CCC)CCC (centres unmarked) [CL4F 12-6]	–	1.72E+06 Avg Radiance [p/s/cm2/sr]	1 week	5 weeks	5 weeks	5 weeks	0.012 and 0.008	92.28 nm and 94.26 nm	0.017	82.84 nm	5.86E+07 Avg Radiance [p/s/cm2/sr]	99.3% and 99.6%	99.7%	6%	higher knockdown activity	0.18	–	–	–
CCCCCCCCCCC(CCCCCCCCCC)C(=O)OCCCCCCC(O)(CCCCCCOC(=O)C(CCCCCCCCCC)CCCCCCCCCC)CCCCN(CCC)CCC [CL4F 12-10]	–	2.77E+05 Avg Radiance [p/s/cm2/sr]	1 week	5 weeks	5 weeks	5 weeks	0.015	85.62 nm	0.019	75.85 nm	3.09E+07 Avg Radiance [p/s/cm2/sr]	99.2%	99.6%	80.6%	–	–	–	–	–
CCCCCCCCCCCC(CCC)C(=O)OCCCCCCC(O)(CCCCCCOC(=O)C(CCC)CCCCCCCCCCC)CCCCN(CCC)CCC (centres unmarked) [CL4F 13-3]	higher Fluc activity	7.30E+06 Avg Radiance [p/s/cm2/sr]	0 week	0 week weeks	0 week weeks	–	0.023	92.25 nm	0.044	83.05 nm	7.34E+07 Avg Radiance [p/s/cm2/sr]	99.7%	96.3%	8.4%	–	–	0 day days	–	–
CCCCCCCCCCCCC(CC)C(=O)OCCCCCCC(O)(CCCCCCOC(=O)C(CC)CCCCCCCCCCCC)CCCCN(CCC)CCC (centres unmarked) [CL4F 14-2]	higher Fluc activity	3.66E+06 Avg Radiance [p/s/cm2/sr]	0 week	0 week weeks	0 week weeks	–	0.076	80.87 nm	0.078	74.02 nm	4.08E+07 Avg Radiance [p/s/cm2/sr]	98.0%	94.0%	7.9%	–	–	0 day days	–	–
CCCCCCCCCCCCCCC(C)C(=O)OCCCCCCC(O)(CCCCCCOC(=O)C(C)CCCCCCCCCCCCCC)CCCCN(CCC)CCC (centres unmarked) [CL4F 16-1]	–	1.93E+06 Avg Radiance [p/s/cm2/sr]	–	–	–	–	0.092	64.81 nm	0.045	69.08 nm	8.52E+06 Avg Radiance [p/s/cm2/sr]	94.9%	65.9%	103.6%	–	–	–	Does not meet the criteria for “good” at production	–
CCCCC(CCCC)C(=O)OCCCCCCC(O)(CCCCCCOC(=O)C(CCCC)CCCC)CCCCOC(=O)C1CCN(C)CC1 [CL15F 6-4]	–	3.39E+07 Avg Radiance [p/s/cm2/sr]	–	–	–	–	0.255	230.7 nm	0.316	312.10 nm	1.84E+06 Avg Radiance [p/s/cm2/sr]	91.5%	66.7%	–	–	2.28	–	Does not meet the criteria for “good” at production	higher Fluc activity
CCCCCC(CCC)C(=O)OCCCCCCC(O)(CCCCCCOC(=O)C(CCC)CCCCC)CCCCOC(=O)C1CCN(C)CC1 (centres unmarked) [CL15F 7-3]	–	1.48E+07 Avg Radiance [p/s/cm2/sr]	–	–	–	–	0.398	287.9 nm	0.369	370.30 nm	5.34E+06 Avg Radiance [p/s/cm2/sr]	95.7%	64.2%	–	–	2.08	–	Does not meet the criteria for “good” at production	higher Fluc activity
CCCCCC(CCCCC)C(=O)OCCCCCCC(O)(CCCCCCOC(=O)C(CCCCC)CCCCC)CCCCOC(=O)C1CCN(C)CC1 [CL15F 7-5]	–	1.37E+07 Avg Radiance [p/s/cm2/sr]	0 week	5 weeks	5 weeks	5 weeks	0.039	180.6 nm	0.007	196.00 nm	2.15E+06 Avg Radiance [p/s/cm2/sr]	98.8%	97.6%	–	–	1.74	–	–	higher Fluc activity
